We go through 7 molecules from patent US20140187596A1, “FATTY ACID AMIDE HYDROLASE INHIHIBITORS FOR TREATING PAIN” (ALLERGAN, INC., priority 2011, published 2014).

What all share (assay type): biochemical
Assay [1] has as its target FP receptor (Homo sapiens, UniProt P43088). The assay is described as follows: PG receptor antagonism, FP. On the set-up: unit not given here. The settings on record: antagonist activity at FP receptor.
The target of assay [2] is T1, DP receptor (Homo sapiens, UniProt Q13258).
T1 sequence (Q13258 1-359): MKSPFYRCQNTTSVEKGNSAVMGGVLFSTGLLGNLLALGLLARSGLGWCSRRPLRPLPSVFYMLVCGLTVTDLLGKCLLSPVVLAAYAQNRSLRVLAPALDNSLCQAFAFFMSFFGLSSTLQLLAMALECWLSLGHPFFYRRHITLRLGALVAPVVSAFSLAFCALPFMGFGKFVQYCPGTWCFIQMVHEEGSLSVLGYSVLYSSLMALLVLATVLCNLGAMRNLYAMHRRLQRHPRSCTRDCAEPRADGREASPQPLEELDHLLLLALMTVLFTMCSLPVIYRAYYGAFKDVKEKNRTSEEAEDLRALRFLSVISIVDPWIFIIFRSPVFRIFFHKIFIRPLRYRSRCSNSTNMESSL
The assay is described as follows: PG receptor antagonism, DP. Details: unit not given here. The settings on record: antagonist activity at DP receptor.

Assay [3] concerns the target T2, EP1 receptor (Homo sapiens, UniProt P34995).
T2 sequence (P34995 1-402): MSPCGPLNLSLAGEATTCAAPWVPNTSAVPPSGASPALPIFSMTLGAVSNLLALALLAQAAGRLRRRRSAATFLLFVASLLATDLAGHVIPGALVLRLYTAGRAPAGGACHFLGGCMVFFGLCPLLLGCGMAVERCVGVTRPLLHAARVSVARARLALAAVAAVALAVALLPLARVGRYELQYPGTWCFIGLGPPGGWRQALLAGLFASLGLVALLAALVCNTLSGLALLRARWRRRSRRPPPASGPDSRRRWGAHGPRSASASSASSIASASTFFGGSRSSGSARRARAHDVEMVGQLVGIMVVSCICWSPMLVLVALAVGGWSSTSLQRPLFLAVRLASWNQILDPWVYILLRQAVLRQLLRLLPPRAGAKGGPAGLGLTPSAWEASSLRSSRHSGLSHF
The assay is described as follows: PG receptor antagonism, EP1. On the set-up: unit not given here. As to conditions: antagonist activity at EP1 receptor.

In assay [4] the target is T3, EP3 receptor (Homo sapiens, UniProt P43115).
T3 sequence (P43115 1-390): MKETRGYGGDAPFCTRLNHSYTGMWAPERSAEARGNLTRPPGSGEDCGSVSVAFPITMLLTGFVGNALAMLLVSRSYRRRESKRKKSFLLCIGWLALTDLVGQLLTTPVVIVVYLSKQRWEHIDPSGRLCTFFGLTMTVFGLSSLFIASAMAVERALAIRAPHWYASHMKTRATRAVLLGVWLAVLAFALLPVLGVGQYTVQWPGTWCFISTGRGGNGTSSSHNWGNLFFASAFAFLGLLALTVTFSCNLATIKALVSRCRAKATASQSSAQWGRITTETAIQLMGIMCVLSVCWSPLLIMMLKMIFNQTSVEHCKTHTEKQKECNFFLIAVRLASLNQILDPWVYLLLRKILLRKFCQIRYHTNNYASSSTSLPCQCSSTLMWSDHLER
The assay is described as follows: PG receptor antagonism, EP3. Details: unit not given here. As to conditions: antagonist activity at EP3 receptor.

Assay [5] addresses EP4 receptor (Homo sapiens, UniProt P35408). Description: PG receptor antagonism, EP4. On the set-up: unit not given here. The settings on record: antagonist activity at EP4 receptor.
Assay [6] has as its target IP receptor (Homo sapiens, UniProt P43119). The assay is described as follows: PG receptor antagonism, IP. Details: unit not given here. The settings on record: antagonist activity at IP receptor.
Assay [7] addresses T4, TP receptor (Homo sapiens, UniProt P21731).
T4 sequence (P21731 1-343): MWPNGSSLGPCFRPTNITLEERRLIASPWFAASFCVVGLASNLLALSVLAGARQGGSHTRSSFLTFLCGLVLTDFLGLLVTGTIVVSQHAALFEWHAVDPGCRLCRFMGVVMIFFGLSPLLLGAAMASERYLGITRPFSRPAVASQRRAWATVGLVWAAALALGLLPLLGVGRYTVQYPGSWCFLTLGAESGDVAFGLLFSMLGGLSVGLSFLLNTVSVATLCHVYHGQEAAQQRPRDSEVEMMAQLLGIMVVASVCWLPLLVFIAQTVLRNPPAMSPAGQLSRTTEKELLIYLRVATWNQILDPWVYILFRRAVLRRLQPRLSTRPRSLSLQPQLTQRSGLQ
The assay is described as follows: PG receptor antagonism, TP. Details: unit not given here. As to conditions: antagonist activity at TP receptor.

For assay [8], the target named is EP2 receptor (Homo sapiens, UniProt P43116). Description: PG receptor antagonism, EP2. The settings on record: antagonist activity at EP2 receptor.
Sequence of EP2 receptor (P43116 whole entry): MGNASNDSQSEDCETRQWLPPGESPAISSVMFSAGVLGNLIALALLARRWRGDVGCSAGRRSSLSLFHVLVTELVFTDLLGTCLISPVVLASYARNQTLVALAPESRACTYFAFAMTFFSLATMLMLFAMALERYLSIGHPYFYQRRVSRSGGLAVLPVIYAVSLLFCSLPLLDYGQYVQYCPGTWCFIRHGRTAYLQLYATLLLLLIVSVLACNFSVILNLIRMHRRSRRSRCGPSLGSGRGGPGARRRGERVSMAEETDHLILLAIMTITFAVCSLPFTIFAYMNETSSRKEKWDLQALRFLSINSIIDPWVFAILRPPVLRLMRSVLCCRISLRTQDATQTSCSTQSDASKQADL

Sequence of FP receptor (P43088 whole entry): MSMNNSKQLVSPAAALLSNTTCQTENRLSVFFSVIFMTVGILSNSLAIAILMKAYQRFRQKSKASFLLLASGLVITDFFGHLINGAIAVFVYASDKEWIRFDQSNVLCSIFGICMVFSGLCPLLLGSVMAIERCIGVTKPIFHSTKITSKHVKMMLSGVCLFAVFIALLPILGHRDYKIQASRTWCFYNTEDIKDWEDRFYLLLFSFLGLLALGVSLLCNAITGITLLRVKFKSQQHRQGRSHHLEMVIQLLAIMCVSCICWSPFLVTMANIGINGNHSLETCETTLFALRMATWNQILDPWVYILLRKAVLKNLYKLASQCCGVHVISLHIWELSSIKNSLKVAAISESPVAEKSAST
Sequence of IP receptor (P43119 whole entry): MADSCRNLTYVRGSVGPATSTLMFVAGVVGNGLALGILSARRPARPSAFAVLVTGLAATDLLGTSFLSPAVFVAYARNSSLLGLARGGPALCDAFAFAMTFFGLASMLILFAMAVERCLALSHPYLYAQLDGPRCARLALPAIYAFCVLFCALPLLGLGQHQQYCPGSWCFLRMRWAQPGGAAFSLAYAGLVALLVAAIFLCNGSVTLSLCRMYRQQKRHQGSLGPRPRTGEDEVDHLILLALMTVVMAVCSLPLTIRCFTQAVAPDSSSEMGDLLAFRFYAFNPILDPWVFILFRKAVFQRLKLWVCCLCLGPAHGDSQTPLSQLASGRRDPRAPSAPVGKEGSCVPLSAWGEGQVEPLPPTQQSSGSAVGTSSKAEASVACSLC
Sequence of EP4 receptor (P35408 whole entry): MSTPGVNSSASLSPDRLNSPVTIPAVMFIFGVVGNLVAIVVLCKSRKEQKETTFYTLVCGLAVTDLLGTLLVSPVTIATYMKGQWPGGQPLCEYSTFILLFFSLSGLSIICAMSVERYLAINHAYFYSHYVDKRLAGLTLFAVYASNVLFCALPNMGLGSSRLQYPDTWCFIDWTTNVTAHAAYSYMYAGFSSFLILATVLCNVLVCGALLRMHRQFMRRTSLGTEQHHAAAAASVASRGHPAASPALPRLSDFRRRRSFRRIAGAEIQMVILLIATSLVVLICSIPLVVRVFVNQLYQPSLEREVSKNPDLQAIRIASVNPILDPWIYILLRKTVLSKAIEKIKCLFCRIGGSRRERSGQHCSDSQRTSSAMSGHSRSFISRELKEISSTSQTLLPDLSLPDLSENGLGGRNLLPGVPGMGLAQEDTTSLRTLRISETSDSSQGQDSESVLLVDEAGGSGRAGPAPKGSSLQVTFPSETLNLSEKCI

In assay [1], `O=C(/C=C/c1ccc(F)cc1C[C@@H]1C(c2nc(C(=O)NCCCCC3CCCCC3)co2)C2CC[C@H]1O2)NS(=O)(=O)c1ccccc1` (stereo partly drawn) [Example 6, (E)-3R-[2R-[[3-[4-[[(4-cyclohexylbutyl)amino]carbonyl]-2-oxazolyl]-7-oxabicyclo[2.2.1]hept-2-yl]methyl]-4-fluoro-phenyl]-N-(benzenesulfonyl)acrylic amide] registered an FP of 100. The molecule further gave a DP in assay [2] of 60. Besides, the EP1 in assay [3] was 60. Also, the EP3 in assay [4] is 290. This molecule came in with an EP4 in assay [5] of 380. For the same molecule, the IP in assay [6] stood at 1500. The TP in assay [7] is under 1.

`O=C(/C=C/c1ccc(F)cc1C[C@@H]1C(c2nc(C(=O)NCCCCC3CCCCC3)co2)C2CC[C@H]1O2)NS(=O)(=O)CC(F)(F)F` (stereo partly drawn) [Example 4, (E)-3R-[2R-[[3-[4-[[(4-cyclohexylbutyl)amino]carbonyl]-2-oxazolyl]-7-oxabicyclo[2.2.1]hept-2-yl]methyl]-4-fluoro-phenyl]-N-(2,2,2-trifluoroethanesulfonyl)acrylic amide] returned an FP in assay [1] of 130. The molecule further had a DP in assay [2] of 80. In assay [3], this molecule yielded an EP1 of 50. Moreover, the EP2 in assay [8] is recorded as 5300. The EP3 in assay [4] was determined as 2500. For the same molecule, the EP4 in assay [5] amounted to 80. In addition, the TP in assay [7] is given as under 1.

As for `O=C(O)/C=C/c1ccc(F)cc1C[C@@H]1C(c2nc(C(=O)NCCCCC3CCCCC3)co2)C2CC[C@H]1O2` (stereo partly drawn) [Example 1, (E)-3-(2R-{3R-[4-(4-Cyclohexyl-butylcarbamoyl)-oxazol-2-yl]-7-oxa-bicyclo[2.2.1]hept-2-ylmethyl}-4-fluoro-phenyl)-acrylic acid], the FP in assay [1] is given as 60. In addition, the DP in assay [2] was determined as 70. Further, the EP1 in assay [3] came to 380. In addition, in assay [4], the EP3 came out at 5500. Further, the EP4 in assay [5] is on record as 60. This molecule also displayed a TP in assay [7] of under 1.

With `CCS(=O)(=O)NC(=O)/C=C/c1ccc(F)cc1C[C@@H]1C(c2nc(C(=O)NCCCCC3CCCCC3)co2)C2CC[C@H]1O2` (stereo partly drawn) [Example 2, (E)-3R-[2R-[[3-[4-[[(4-cyclohexylbutyl)amino]carbonyl]-2-oxazolyl]-7-oxabicyclo[2.2.1]hept-2-yl]methyl]-4-fluoro-phenyl]-N-(ethylsulfonyl)acrylic amide], the FP in assay [1] stood at 100. Also, the DP in assay [2] worked out at 50. This molecule had an EP1 in assay [3] of 190. Moreover, the EP3 in assay [4] stood at 1600. The EP4 in assay [5] is 140. This molecule gave an IP in assay [6] of 1100. The molecule further came in with a TP in assay [7] of under 1.

The molecule `CCCCCCCCNC(=O)c1coc(C2C3CCC(O3)C2Cc2cc(F)ccc2/C=C/C(=O)NS(=O)(=O)CC)n1` (stereo not drawn) [Example 7] gave an FP in assay [1] of 370. The molecule further returned a DP in assay [2] of 45. For the same molecule, the EP1 in assay [3] worked out at 80. In assay [4], this molecule gave an EP3 of 1900. The same molecule showed an EP4 in assay [5] of 200. For the same molecule, the IP in assay [6] was 3500. This molecule also registered a TP in assay [7] of under 1.

In assay [1], `CCCCCCCCCNC(=O)c1coc(C2C3CCC(O3)C2Cc2cc(F)ccc2CCC(=O)NS(=O)(=O)C(F)(F)F)n1` (stereo not drawn) [Example 8, 2-{3-[5-Fluoro-2-(3-oxo-3-trifluoromethanesulfonylamino-propyl)-benzyl]-7-oxa-bicyclo[2.2.1]hept-2-yl}-oxazole-4-carboxylic acid nonylamide] gave an FP of 50. The molecule further came in with a DP in assay [2] of 10. The molecule also yielded an EP1 in assay [3] of 40. In assay [8], this molecule registered an EP2 of 4000. The molecule also came in with an EP3 in assay [4] of 700. The EP4 in assay [5] is 30. In assay [6], this molecule gave an IP of 3300. In assay [7], this molecule had a TP of under 1.

For the molecule `CS(=O)(=O)NC(=O)/C=C/c1ccc(F)cc1C[C@@H]1C(c2nc(C(=O)NCCCCC3CCCCC3)co2)C2CC[C@H]1O2` (stereo partly drawn) [Example 3, (E)-3R-[2R-[[3-[4-[[(4-cyclohexylbutyl)amino]carbonyl]-2-oxazolyl]-7-oxabicyclo[2.2.1]hept-2-yl]methyl]-4-fluoro-phenyl]-N-(methylsulfonyl)acrylic amide], the FP in assay [1] came out at 90. The molecule further gave a DP in assay [2] of 30. This molecule also had an EP1 in assay [3] of 65. The EP3 in assay [4] is on record as 790. In assay [5], this molecule showed an EP4 of 100. The TP in assay [7] is on record as under 1.
